{"source": "patent US8937069B2", "about": "“Substituted pyrrolo[2,3-B]pyrazine compounds and their use” (Novartis AG, priority 2012, dated 2015)"}
{"biological_target": "T1, IP receptor (Homo sapiens, UniProt P43119)", "T1 construct": "expressed in transfected cells; host or cells: CHO cells stably expressing the IP receptor (CHO-IP)", "T1 sequence (P43119 whole entry)": "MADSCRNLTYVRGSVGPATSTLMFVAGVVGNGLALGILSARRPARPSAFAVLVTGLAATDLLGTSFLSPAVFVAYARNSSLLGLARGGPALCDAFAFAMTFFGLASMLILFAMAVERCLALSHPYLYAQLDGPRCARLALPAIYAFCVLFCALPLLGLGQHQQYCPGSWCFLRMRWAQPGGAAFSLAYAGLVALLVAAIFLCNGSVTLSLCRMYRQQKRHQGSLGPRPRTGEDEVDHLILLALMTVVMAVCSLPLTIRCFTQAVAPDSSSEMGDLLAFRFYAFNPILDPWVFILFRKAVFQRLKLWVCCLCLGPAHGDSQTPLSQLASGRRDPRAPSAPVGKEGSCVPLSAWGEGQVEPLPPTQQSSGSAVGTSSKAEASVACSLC", "test": "cAMP accumulation in CHO cells stably expressing the IP receptor (CHO-IP), PerkinElmer AlphaScreen assay", "format": "cell-based", "conditions": "agonist activity, 1 hour at room temperature, 4-parameter logistic fit", "protocol": "Activity of compounds at the IP receptor (IP receptor) is assessed by measuring cAMP accumulation in CHO cells stably expressing the IP receptor (CHO-IP) using the PerkinElmer AlphaScreen assay. This technology measures the endogenous production of cAMP, in a non-radioactive luminescence proximity homogenous assay. A biological reaction occurs between streptavidin coated donor beads, biotinylated cAMP and anti-cAMP acceptor beads, bringing the donor and acceptor beads close enough together so that upon excitation a fluorescence signal is produced. On production of endogenous cAMP, competition between the biotinylated cAMP and cellular-derived cAMP causes a reduction in the fluorescent signal. The reduction in signal is proportional to the amount of cAMP being produced, thus it is possible to quantify the amount of cAMP being produced on stimulation with agonist.\nTest and reference compounds are prepared at 100×[final] in 100% DMSO, and diluted 1:3 using a Biomek Fx (Beckman Coulter). This is followed by an intermediate dilution to give 5×[final] in assay buffer (HBSS containing 5 mM HEPES, 0.1% (w/v) BSA). 5 μL of 5×[final] test compounds, reference compounds and buffer/DMSO control are then transferred to a 384-well white OptiPlate, containing 20 μL CHO-IP cell suspension (15,000 cells/well, prepared from frozen), and plate is incubated at room temperature for 1 hour. A cAMP standard curve is constructed for each experiment (concentration range of 10000 nM to 0.001 nM, in assay buffer) and 25 μL of each concentration added to the last two columns of the assay plate. The incubation is terminated by the addition of lysis buffer (dH2O; 0.3% (v v^−1) Tween-20) containing 20 units mL^−1 streptavidin coated donor beads and biotinylated cAMP (pre-incubated for 30 minutes) and 20 units mL^−1 anti-cAMP acceptor beads, which are added to the lysis buffer just before addition to the assay plate. The assay plate is then incubated at room temperature in the dark, for 60 minutes with gentle shaking, and read on the Envision plate reader (Perkin Elmer).\nThe raw data of the reference compounds, test compounds and controls are converted into cAMP concentrations, using the cAMP standard curve, in GraphPadPrism (GraphPad Software Inc). EC50 as well as maximal values of the agonist curves are determined using a 4-parameter logistic equation. The % maximum response values of all test compounds are determined using the top of the treprostinil concentration-response curve.", "units": {"EC50": "nM"}}
{"smiles": "Cc1ccc(-c2nc3cc(C4CC4)n(CCCCCCC(=O)O)c3nc2-c2ccc(C)cc2)cc1", "note": "[Example 1, 7-(6-Cyclopropyl-2,3-di-p-tolyl-5H-pyrrolo[2,3-b]pyrazin-5-yl)heptanoic acid]", "EC50": 1.7}
{"smiles": "CCOC(=O)CCCCCCn1c(C2CC2)cc2nc(-c3ccc(C)cc3)c(-c3ccc(C)cc3)nc21", "note": "[Example 1.1, Ethyl 7-(6-cyclopropyl-2,3-di-p-tolyl-5H-pyrrolo[2,3-b]pyrazin-5-yl)heptanoate]", "EC50": 57.5}
{"smiles": "Cc1ccc(-c2nc3cc(C(C)C)n(CCCCCCC(=O)O)c3nc2-c2ccc(C)cc2)cc1", "note": "[Example 1.2, 7-(6-Isopropyl-2,3-di-p-tolyl-pyrrolo[2,3-b]pyrazin-5-yl)-heptanoic acid]", "EC50": 1.8}
{"smiles": "CCOC(=O)CCCCCCn1c(C(C)C)cc2nc(-c3ccc(C)cc3)c(-c3ccc(C)cc3)nc21", "note": "[Example 1.3, ethyl 7-(6-isopropyl-2,3-di-p-tolyl-5H-pyrrolo[2,3-b]pyrazin-5-yl)heptanoate]", "EC50": 283}
{"smiles": "CCOC(=O)CCCCCCn1ccc2nc(-c3ccc(C)cc3)c(-c3ccc(C)cc3)nc21", "note": "[Example 1.4, 7-(2,3-Di-p-tolyl-pyrrolo[2,3-b]pyrazin-5-yl)-heptanoic acid ethyl ester]", "EC50": 18.3}
{"smiles": "Cc1ccc(-c2nc3ccn(CCCCCCC(=O)O)c3nc2-c2ccc(C)cc2)cc1", "note": "[Example 1.5, 7-(2,3-Di-p-tolyl-pyrrolo[2,3-b]pyrazin-5-yl)-heptanoic acid]", "EC50": 6.9}
{"smiles": "Cc1ccc(-c2nc3c(C=O)cn(CCCCCCC(=O)O)c3nc2-c2ccc(C)cc2)cc1", "note": "[Example 2.1, 7-(7-Formyl-2,3di-p-tolyl-5H-pyrrolo[2,3-b]pyrazin-5-yl)heptanoic acid]", "EC50": 7.1}
{"smiles": "Cc1ccc(-c2nc3c(CO)cn(CCCCCCC(=O)O)c3nc2-c2ccc(C)cc2)cc1", "note": "[Example 2.2, 7-(7-(Hydroxymethyl)-2,3-di-p-tolyl-5H-pyrrolo[2,3-b]pyrazin-5-yl)heptanoic acid]", "EC50": 17.4}
{"smiles": "CCOC(=O)CCCCCCn1cc(CO)c2nc(-c3ccc(C)cc3)c(-c3ccc(C)cc3)nc21", "note": "[Example 3, Ethyl 7-(7-(hydroxymethyl)-2,3-di-p-tolyl-5H-pyrrolo[2,3-b]pyrazin-5-yl)heptanoate]", "EC50": 325}
{"smiles": "CCOC(=O)CCCCCCn1cc(CNC(C)C)c2nc(-c3ccc(C)cc3)c(-c3ccc(C)cc3)nc21", "note": "[Example 4.1, Ethyl 7-(7-((isopropylamino)methyl)-2,3-di-p-tolyl-5H-pyrrolo[2,3-b]pyrazin-5-yl)heptanoate]", "EC50": 415}
{"smiles": "Cc1ccc(-c2nc3c(CNC(C)C)cn(CCCCCCC(=O)O)c3nc2-c2ccc(C)cc2)cc1", "note": "[Example 4.2, 7-(7-((Isopropylamino)methyl)-2,3-di-p-tolyl-5H-pyrrolo[2,3-b]pyrazin-5-yl)heptanoic acid]", "EC50": 79.7}
{"smiles": "COc1cc2nc(-c3ccc(C)cc3)c(-c3ccc(C)cc3)nc2n1CCCCCCC(=O)O", "note": "[Example 5, 7-(6-Methoxy-2,3-di-p-tolyl-pyrrolo[2,3-b]pyrazin-5-yl)-heptanoic acid]", "EC50": 0.7}
{"smiles": "CCOC(=O)CCCCCCN1CCc2nc(-c3ccc(C)cc3)c(-c3ccc(C)cc3)nc21", "note": "[Example 6, Ethyl 7-(2,3-di-p-tolyl-6,7-dihydro-5H-pyrrolo[2,3-b]pyrazin-5-yl)heptanoate]", "EC50": 1.8}
{"smiles": "Cc1ccc(-c2nc3cc(CCCCC(=O)O)[nH]c3nc2-c2ccc(C)cc2)cc1", "note": "[Example 7, 5-(2,3-Di-p-tolyl-5H-pyrrolo[2,3-b]pyrazin-6-yl)-pentanoic acid]", "EC50": 320}
{"smiles": "Cc1ccc(-c2nc3cc(CCCCC(=O)NCC(=O)O)[nH]c3nc2-c2ccc(C)cc2)cc1", "note": "[Example 8, 2-(5-(2,3-Di-p-tolyl-5H-pyrrolo[2,3-b]pyrazin-6-yl)pentanamido)acetic acid]", "EC50": 1250}
{"smiles": "Cc1ccc(-c2nc3cc(C)n(CCCCCCC(=O)O)c3nc2-c2ccc(C)cc2)cc1", "note": "[Example 9, 7-(6-Methyl-2,3-di-p-tolyl-5H-pyrrolo[2,3-b]pyrazin-5-yl)heptanoic acid]", "EC50": 0.3}
{"smiles": "O=C(O)CCCCCCn1c(C2CC2)cc2nc(-c3ccccc3)c(-c3ccccc3)nc21", "note": "[Example 10, 7-(6-Cyclopropyl-2,3-diphenyl-pyrrolo[2,3-b]pyrazin-5-yl)-heptanoic acid]", "EC50": 0.5}
{"smiles": "COc1ccc(-c2nc3cc(C4CC4)n(CCCCCCC(=O)O)c3nc2-c2ccc(C)cc2)cc1", "note": "[Example 10.1, 7-(6-cyclopropyl-2-(4-methoxy-phenyl)-3-(p-tolyl)-5H-pyrrolo[2,3-b]pyrazin-5-yl)heptanoic acid]", "EC50": 2.4}
{"smiles": "O=C(O)CCCCCCn1c(C2CC2)cc2nc(-c3ccc(Cl)cc3)c(-c3ccc(Cl)cc3)nc21", "note": "[Example 10.2, 7-(2,3-bis(4-chlorophenyl)-6-cyclopropyl-5H-pyrrolo[2,3-b]pyrazin-5-yl)heptanoic acid]", "EC50": 5.6}
{"smiles": "CCc1ccc(-c2nc3cc(C4CC4)n(CCCCCCC(=O)O)c3nc2-c2ccc(C)cc2)cc1", "note": "[Example 10.3, 7-(6-cyclopropyl-2-(4-ethylphenyl)-3-(p-tolyl)-5H-pyrrolo[2,3-b]pyrazin-5-yl)heptanoic acid]", "EC50": 6.8}
{"smiles": "Cc1cccc(-c2nc3cc(C4CC4)n(CCCCCCC(=O)O)c3nc2-c2cccc(C)c2)c1", "note": "[Example 10.4, 7-(6-cyclopropyl-2,3-di-m-tolyl-5H-pyrrolo[2,3-b]pyrazin-5-yl)heptanoic acid]", "EC50": 60.6}
{"smiles": "CCc1ccc(-c2nc3c(cc(C4CC4)n3CCCCCCC(=O)O)nc2-c2ccc(C)cc2)cc1", "note": "[Example 10.5, 7-(6-cyclopropyl-3-(4-ethylphenyl)-2-(p-tolyl)-5H-pyrrolo[2,3-b]pyrazin-5-yl)heptanoic acid]", "EC50": 4.4}
{"smiles": "COc1ccc(-c2nc3c(cc(C4CC4)n3CCCCCCC(=O)O)nc2-c2ccc(C)cc2)cc1", "note": "[Example 10.6, 7-(6-cyclopropyl-3-(4-methoxyphenyl)-2-(p-tolyl)-5H-pyrrolo[2,3-b]pyrazin-5-yl)heptanoic acid]", "EC50": 6.1}
{"smiles": "Cc1ccc(-c2nc3cc(C4CC4)n(CCCCCCC(=O)O)c3nc2-c2cccc(C)c2)cc1", "note": "[Example 10.7, 7-(6-cyclopropyl-3-(m-tolyl)-2-(p-tolyl)-5H-pyrrolo[2,3-b]pyrazin-5-yl)heptanoic acid]", "EC50": 37.1}
{"smiles": "Cc1ccc(-c2nc3c(cc(C4CC4)n3CCCCCCC(=O)O)nc2-c2cccc(C)c2)cc1", "note": "[Example 10.8, 7-(6-cyclopropyl-2-(m-tolyl)-3-(p-tolyl)-5H-pyrrolo[2,3-b]pyrazin-5-yl)heptanoic acid]", "EC50": 2.5}
{"smiles": "Cc1ccc(-c2nc3cc(CCO)n(CCCCCCC(=O)O)c3nc2-c2ccc(C)cc2)cc1", "note": "[Example 11, 7-(6-(2-Hydroxyethyl)-2,3-di-p-tolyl-5H-pyrrolo[2,3-b]pyrazin-5-yl)heptanoic acid]", "EC50": 1.6}
{"smiles": "Cc1ccc(-c2nc3cc(C4CC4)n(CCCCC(=O)O)c3nc2-c2ccc(C)cc2)cc1", "note": "[Example 12, 5-(6-Cyclopropyl-2,3-di-p-tolyl-5H-pyrrolo[2,3-b]pyrazin-5-yl)pentanoic acid]", "EC50": 660}
{"smiles": "Cc1ccc(-c2nc3cc(C4CC4)n(CCCCCC(=O)O)c3nc2-c2ccc(C)cc2)cc1", "note": "[Example 13, 6-(6-Cyclopropyl-2,3-di-p-tolyl-5H-pyrrolo[2,3-b]pyrazin-5-yl)hexanoic acid]", "EC50": 2.4}
{"smiles": "COCc1cn(CCCCCCC(=O)O)c2nc(-c3ccc(C)cc3)c(-c3ccc(C)cc3)nc12", "note": "[Example 14, 7-(7-(Methoxymethyl)-2,3-di-p-tolyl-5H-pyrrolo[2,3-b]pyrazin-5-yl)heptanoic acid]", "EC50": 4.2}
{"smiles": "Cc1ccc(-c2nc3c(nc2-c2ccc(C)cc2)N(CCCCCCC(=O)O)C(=O)C3)cc1", "note": "[Example 15, 7-(6-oxo-2,3-dip-tolyl-6,7-dihydro-5H-pyrrolo[2,3-b]pyrazin-5-yl)heptanoic acid]", "EC50": 3.6}
{"smiles": "Cc1ccc(-c2nc3cc(C(F)(F)F)n(CCCCCCC(=O)O)c3nc2-c2ccc(C)cc2)cc1", "note": "[Example 16, 7-(2,3-Dip-tolyl-6-(trifluoromethyl)-5H-pyrrolo[2,3-b]pyrazin-5-yl)heptanoic acid]", "EC50": 3}
{"smiles": "CCc1c(CC)n(CCCCCCC(=O)O)c2nc(-c3ccc(C)cc3)c(-c3ccc(C)cc3)nc12", "note": "[Example 17, 7-(6,7-Diethyl-2,3-di-p-tolyl-5H-pyrrolo[2,3-b]pyrazin-5-yl)heptanoic acid]", "EC50": 0.5}
